Values quoted from earlier work in patent US12440499B2, “Topical composition” (MC2 Therapeutics Limited, priority 2018, dated 2025).

Conditions: in presence of water

C=C1/C(=C\C=C2/CCC[C@]3(C)[C@@H]([C@H](C)/C=C/[C@@H](O)C4CC4)CC[C@@H]23)C[C@@H](O)C[C@@H]1O [calcipotriol]
pH value for maximum stability: above 8
